Measurements reported in ChEMBL document CHEMBL1201862, “PubChem BioAssay data set” (2004).
The source made the active and inactive calls.

Key:
[1] = THP-1 cell cytotoxicity, dose response, cytotoxicity control for non-replicating M. tuberculosis project (AID 489025); type: functional
[2] = molecular target: T1, Short transient receptor potential channel 4 (Mus musculus, UniProt Q9QUQ5); test: block of DAMGO-driven TRPC4 calcium entry – cell-based, HEK293 TRPC4/mu-opioid, Fluo-4 calcium, dose response (AID 434942); type: functional;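 note: potency of inhibitors blocking the TRPC4 calcium response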
T1 sequence (Q9QUQ5 whole entry): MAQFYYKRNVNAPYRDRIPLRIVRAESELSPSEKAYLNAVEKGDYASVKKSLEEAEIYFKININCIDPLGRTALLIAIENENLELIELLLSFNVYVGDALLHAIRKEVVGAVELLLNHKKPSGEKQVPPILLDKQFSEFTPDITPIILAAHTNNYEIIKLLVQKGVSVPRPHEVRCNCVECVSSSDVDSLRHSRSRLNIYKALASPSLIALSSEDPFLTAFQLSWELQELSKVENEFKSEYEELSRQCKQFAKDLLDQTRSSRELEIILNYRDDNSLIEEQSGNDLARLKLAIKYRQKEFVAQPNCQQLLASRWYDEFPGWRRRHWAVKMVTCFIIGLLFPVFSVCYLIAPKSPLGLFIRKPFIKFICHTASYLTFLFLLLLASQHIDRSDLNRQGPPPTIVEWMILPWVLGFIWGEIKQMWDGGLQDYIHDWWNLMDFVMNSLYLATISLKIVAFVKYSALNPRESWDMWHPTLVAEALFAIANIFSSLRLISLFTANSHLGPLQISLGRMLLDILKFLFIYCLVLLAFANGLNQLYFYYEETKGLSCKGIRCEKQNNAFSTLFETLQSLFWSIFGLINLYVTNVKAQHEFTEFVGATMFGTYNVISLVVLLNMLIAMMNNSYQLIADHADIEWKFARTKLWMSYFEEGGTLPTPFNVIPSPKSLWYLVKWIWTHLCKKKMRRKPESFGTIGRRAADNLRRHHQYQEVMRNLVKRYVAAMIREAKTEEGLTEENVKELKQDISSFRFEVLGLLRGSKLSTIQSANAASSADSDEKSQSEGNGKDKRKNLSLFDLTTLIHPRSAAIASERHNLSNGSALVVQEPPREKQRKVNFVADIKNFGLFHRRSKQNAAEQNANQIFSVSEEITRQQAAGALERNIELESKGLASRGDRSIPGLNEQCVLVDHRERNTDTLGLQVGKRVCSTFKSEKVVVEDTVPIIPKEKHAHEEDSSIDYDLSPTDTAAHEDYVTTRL

[3] = molecular target: T2, Protein skinhead-1 (Caenorhabditis elegans, UniProt P34707); type: functional
T2 sequence (P34707 whole entry): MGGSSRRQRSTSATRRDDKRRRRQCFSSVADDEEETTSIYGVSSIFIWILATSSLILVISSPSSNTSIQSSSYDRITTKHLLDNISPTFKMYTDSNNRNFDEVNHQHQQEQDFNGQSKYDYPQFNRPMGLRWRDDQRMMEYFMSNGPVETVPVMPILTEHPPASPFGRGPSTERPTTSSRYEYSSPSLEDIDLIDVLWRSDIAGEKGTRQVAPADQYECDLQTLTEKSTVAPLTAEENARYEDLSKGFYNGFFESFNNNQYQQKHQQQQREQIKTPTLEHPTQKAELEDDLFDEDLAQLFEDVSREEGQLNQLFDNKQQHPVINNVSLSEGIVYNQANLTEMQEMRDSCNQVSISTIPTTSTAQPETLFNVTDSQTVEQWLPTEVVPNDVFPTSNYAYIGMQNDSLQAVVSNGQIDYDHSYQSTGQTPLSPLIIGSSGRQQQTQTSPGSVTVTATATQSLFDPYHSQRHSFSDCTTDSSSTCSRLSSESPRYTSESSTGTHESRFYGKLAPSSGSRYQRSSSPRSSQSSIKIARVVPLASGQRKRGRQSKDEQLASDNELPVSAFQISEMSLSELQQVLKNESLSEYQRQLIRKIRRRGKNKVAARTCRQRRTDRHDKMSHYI

[4] = molecular target: T3, Adenosylmethionine-8-amino-7-oxononanoate aminotransferase (Mycobacterium tuberculosis, UniProt P9WQ81); test: Mycobacterium tuberculosis BioA enzyme inhibitor Measured in Biochemical System Using Plate Reader - 2163-02_Inhibitor_Dose_CherryPick_Activity.; type: functional, Mycobacterium tuberculosis UT205
T3 sequence (P9WQ81 whole entry): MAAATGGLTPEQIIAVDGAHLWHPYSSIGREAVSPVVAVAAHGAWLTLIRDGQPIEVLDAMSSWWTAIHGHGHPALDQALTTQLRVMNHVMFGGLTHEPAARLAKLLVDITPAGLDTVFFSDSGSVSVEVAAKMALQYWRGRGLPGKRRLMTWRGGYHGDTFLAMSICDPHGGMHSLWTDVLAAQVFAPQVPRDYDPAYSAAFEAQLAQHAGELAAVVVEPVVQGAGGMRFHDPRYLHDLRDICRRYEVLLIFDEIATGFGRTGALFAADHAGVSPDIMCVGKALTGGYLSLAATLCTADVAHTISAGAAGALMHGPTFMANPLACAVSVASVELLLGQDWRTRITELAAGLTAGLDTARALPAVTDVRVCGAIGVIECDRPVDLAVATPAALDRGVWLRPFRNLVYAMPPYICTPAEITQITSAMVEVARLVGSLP

[5] = molecular target: T4, DNA repair and recombination protein RAD54-like (Homo sapiens, UniProt Q92698); test: RAD54 Holliday junction migration blockers – biochemical, fluorescence, cherry-picked samples, dose series, confirmation (AID 651657); type: functional
T4 sequence (Q92698 whole entry): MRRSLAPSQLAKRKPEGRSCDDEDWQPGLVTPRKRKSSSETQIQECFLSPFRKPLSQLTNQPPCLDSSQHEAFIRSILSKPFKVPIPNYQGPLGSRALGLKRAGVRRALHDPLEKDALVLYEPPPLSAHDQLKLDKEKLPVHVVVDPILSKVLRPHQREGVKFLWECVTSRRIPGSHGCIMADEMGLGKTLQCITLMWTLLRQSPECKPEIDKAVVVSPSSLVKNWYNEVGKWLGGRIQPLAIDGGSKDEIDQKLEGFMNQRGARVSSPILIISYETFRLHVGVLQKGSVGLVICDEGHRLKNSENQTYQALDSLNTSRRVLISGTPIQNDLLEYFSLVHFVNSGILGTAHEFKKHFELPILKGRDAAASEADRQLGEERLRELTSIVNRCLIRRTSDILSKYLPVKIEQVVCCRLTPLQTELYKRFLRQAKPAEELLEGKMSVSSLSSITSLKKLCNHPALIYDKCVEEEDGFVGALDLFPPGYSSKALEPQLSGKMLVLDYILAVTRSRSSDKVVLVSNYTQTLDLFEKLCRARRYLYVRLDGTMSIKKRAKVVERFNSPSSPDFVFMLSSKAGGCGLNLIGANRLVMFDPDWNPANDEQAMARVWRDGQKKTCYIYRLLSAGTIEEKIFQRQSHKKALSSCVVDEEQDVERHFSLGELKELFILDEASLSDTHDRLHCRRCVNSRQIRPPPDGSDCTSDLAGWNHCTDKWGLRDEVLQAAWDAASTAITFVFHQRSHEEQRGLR

[6] = molecular target: T5, DNA repair protein RAD52 homolog (Homo sapiens, UniProt P43351); type: functional, biochemical
T5 sequence (P43351 whole entry): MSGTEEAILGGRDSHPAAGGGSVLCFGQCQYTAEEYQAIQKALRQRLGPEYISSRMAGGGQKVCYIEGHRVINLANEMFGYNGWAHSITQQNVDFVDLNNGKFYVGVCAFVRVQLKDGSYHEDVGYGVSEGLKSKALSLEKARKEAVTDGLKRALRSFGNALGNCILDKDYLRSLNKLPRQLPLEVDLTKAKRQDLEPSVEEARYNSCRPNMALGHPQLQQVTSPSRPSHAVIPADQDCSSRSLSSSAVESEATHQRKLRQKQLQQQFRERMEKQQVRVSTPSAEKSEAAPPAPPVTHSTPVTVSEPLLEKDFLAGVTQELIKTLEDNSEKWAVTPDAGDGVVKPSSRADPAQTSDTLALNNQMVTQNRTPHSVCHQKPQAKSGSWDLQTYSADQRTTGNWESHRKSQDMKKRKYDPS

[7] = tested on: Vero; test: cells; type: functional, cell-based; conditions: Chlorocebus sabaeus
[8] = tested on: Vero; test: cells; type: functional; conditions: Chlorocebus sabaeus
[9] = molecular target: T6, Kappa-type opioid receptor (Homo sapiens, UniProt P41145); type: functional
[10] = molecular target: Beta-galactosidase (Escherichia coli, UniProt Q8VNN2); type: functional
[11] = molecular target: T6, Kappa-type opioid receptor; type: functional; remark: listed apart in the source
[12] = molecular target: Voltage-dependent T-type calcium channel subunit alpha-1H (Homo sapiens, UniProt O95180); type: functional;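 note: channel activity triggered by adding a high calcium stimulation buffer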
[13] = molecular target: Potassium voltage-gated channel subfamily KQT member 2 (Rattus norvegicus, UniProt O88943); test: blockers of KCNQ2 channel current – cell-based, automated electrophysiology, set II, rat KCNQ2, dose response (AID 588637); type: functional
[14] = Luminescence Cell-Based Dose Retest to Confirm Inhibitors of Cancer Stem Cells. [Related pubchem assays (depositor defined):AID2717, AID2721]; type: functional; conditions: Homo sapiens
[15] = tested on: INS1; test: INS-1E survival protection against cytokine death – cell-based, luminescence, retest, dose response (AID 449756); type: functional; conditions: Rattus norvegicus;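 note: cell death triggered by IL-1 beta plus TNF-alpha plus IFN-gamma mixture; protective hits raise ATP signal compared with cytokine alone wells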
[16] = molecular target: T7, Low molecular weight phosphotyrosine protein phosphatase (Homo sapiens, UniProt P24666); type: functional; conditions: read-out: IC50_Mean;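 note: Dose-response confirmation assay measuring inhibition of LMPTP enzyme activity by fluorescence intensity read-out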
T7 sequence (P24666 whole entry): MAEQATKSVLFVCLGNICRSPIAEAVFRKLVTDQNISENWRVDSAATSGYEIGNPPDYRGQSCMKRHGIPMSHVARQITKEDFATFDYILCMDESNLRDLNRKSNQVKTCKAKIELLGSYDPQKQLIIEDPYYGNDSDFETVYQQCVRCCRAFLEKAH

[17] = A549 cell cytotoxicity, dose response, cytotoxicity control, plate reader, cherry-pick, antagonist series (AID 743412); type: functional, cell-based
[18] = toxicity toward HepG2 liver cells – cell-based, plate reader, cherry-pick, antagonist series, cytotoxicity control, dose response (AID 743416); type: functional
[19] = blockers of bursicon-stimulated LGR2 cAMP reporter – cell-based, HEK293, CRE-luciferase reporter, cherry pick, set 2, dose response (AID 743343); type: functional;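 note: transfected cells were stimulated with diluted bursicon conditioned medium after compound addition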
[20] = blockade of melanocortin 4 receptor signaling – cell-based, plate reader, cherry pick, counter-screen for LGR2 antagonist project, dose response (AID 743444); type: functional;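 note: transfected HEK 293 cells stimulated with alpha-MSH peptide; potency of inhibitors of the alpha-MSH evoked signal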
[21] = viability loss in HEK293 cells – cell-based, plate reader, cherry-picked samples, cytotoxicity control, dose response (AID 743446); type: functional

T6 sequence (P41145 whole entry): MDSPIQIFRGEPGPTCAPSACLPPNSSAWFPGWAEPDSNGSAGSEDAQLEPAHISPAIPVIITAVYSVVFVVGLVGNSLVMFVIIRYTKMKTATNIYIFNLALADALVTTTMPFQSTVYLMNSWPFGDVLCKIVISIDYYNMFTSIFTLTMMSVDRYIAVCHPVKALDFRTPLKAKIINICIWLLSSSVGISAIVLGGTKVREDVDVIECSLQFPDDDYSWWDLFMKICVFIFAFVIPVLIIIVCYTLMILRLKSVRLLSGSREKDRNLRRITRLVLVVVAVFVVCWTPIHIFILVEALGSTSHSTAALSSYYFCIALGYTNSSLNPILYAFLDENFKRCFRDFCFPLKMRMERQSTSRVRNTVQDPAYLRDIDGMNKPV
Sequence of Beta-galactosidase (Q8VNN2 whole entry): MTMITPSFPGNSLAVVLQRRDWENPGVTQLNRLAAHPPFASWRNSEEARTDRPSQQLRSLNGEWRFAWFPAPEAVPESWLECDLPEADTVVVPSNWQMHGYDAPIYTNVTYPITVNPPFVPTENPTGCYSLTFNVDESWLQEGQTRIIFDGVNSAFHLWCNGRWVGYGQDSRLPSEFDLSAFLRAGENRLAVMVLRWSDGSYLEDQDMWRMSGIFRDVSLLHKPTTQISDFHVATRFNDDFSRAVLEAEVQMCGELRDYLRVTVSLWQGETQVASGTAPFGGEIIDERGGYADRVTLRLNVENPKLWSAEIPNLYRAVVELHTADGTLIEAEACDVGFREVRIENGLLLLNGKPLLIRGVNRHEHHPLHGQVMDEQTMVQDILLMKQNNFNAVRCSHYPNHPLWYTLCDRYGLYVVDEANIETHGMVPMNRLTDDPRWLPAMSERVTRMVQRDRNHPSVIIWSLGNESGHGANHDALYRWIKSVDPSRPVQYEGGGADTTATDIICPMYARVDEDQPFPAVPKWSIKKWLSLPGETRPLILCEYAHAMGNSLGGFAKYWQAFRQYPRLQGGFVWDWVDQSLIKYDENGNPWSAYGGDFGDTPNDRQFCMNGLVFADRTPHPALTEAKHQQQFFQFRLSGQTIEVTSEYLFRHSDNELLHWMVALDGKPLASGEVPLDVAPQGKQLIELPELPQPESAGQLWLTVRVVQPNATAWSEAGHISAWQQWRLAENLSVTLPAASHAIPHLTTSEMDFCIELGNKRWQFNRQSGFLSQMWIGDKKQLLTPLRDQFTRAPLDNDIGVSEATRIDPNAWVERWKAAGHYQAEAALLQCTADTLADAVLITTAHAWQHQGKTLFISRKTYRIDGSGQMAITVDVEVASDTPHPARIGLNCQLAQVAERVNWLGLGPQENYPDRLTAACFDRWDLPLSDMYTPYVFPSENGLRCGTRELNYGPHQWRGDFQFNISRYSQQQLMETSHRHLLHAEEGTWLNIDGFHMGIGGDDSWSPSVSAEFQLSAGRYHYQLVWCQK
Sequence of Voltage-dependent T-type calcium channel subunit alpha-1H (O95180 whole entry): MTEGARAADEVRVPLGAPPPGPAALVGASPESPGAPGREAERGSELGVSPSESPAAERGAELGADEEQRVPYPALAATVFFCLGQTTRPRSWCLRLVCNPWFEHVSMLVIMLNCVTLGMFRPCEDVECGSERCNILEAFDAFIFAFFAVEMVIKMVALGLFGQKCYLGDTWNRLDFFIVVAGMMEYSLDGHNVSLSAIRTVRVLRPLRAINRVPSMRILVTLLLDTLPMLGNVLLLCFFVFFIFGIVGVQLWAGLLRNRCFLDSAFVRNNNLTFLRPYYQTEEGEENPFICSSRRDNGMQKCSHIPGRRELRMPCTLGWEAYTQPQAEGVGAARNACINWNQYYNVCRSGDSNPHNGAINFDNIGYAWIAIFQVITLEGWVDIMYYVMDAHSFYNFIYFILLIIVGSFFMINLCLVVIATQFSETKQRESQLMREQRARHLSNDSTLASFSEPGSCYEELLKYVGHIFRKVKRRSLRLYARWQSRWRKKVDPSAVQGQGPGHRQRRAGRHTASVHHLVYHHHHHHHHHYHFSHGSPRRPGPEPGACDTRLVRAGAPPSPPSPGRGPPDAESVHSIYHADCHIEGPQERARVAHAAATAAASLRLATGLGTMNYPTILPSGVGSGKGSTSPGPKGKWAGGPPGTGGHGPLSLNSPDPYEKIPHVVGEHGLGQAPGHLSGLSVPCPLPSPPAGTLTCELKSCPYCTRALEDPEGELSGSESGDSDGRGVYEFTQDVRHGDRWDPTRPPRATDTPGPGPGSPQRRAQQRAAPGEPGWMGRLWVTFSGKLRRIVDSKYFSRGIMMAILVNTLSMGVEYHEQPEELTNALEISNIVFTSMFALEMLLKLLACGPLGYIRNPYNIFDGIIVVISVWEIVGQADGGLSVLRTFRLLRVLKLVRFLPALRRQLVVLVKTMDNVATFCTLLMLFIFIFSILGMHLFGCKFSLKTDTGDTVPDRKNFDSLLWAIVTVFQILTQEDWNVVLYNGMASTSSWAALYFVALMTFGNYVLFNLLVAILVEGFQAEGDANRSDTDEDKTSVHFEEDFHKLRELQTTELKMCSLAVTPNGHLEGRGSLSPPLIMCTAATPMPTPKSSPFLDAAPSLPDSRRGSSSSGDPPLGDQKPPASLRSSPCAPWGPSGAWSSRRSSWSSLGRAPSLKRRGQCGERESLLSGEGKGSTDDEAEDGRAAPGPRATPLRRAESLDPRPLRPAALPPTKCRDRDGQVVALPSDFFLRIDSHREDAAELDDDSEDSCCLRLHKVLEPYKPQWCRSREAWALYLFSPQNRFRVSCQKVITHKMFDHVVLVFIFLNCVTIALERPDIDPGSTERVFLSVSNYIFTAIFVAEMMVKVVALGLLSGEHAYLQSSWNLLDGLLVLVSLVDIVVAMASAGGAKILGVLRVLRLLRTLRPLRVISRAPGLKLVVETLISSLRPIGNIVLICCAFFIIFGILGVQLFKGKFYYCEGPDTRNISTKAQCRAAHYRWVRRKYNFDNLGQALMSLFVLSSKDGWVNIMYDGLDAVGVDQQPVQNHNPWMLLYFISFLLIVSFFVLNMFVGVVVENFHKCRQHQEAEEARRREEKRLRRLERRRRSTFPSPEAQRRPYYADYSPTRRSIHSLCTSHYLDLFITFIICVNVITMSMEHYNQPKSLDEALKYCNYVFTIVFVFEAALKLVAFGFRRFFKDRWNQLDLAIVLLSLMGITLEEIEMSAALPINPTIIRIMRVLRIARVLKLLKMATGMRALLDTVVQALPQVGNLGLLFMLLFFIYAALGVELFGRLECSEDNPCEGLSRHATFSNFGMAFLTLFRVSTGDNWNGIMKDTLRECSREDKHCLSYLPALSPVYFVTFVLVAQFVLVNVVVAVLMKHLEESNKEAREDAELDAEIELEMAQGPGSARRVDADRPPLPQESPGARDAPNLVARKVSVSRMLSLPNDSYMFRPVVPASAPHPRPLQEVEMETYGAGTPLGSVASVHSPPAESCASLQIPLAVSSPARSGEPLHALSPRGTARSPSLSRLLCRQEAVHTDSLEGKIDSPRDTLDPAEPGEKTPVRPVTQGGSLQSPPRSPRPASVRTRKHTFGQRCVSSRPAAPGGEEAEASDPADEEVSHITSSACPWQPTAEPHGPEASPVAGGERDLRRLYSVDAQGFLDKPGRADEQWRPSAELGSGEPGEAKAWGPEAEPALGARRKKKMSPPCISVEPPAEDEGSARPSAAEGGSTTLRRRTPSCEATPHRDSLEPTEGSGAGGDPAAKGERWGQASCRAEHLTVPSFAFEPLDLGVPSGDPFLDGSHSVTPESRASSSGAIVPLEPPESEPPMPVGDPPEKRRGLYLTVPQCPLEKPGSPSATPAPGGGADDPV
Sequence of Potassium voltage-gated channel subfamily KQT member 2 (O88943 whole entry): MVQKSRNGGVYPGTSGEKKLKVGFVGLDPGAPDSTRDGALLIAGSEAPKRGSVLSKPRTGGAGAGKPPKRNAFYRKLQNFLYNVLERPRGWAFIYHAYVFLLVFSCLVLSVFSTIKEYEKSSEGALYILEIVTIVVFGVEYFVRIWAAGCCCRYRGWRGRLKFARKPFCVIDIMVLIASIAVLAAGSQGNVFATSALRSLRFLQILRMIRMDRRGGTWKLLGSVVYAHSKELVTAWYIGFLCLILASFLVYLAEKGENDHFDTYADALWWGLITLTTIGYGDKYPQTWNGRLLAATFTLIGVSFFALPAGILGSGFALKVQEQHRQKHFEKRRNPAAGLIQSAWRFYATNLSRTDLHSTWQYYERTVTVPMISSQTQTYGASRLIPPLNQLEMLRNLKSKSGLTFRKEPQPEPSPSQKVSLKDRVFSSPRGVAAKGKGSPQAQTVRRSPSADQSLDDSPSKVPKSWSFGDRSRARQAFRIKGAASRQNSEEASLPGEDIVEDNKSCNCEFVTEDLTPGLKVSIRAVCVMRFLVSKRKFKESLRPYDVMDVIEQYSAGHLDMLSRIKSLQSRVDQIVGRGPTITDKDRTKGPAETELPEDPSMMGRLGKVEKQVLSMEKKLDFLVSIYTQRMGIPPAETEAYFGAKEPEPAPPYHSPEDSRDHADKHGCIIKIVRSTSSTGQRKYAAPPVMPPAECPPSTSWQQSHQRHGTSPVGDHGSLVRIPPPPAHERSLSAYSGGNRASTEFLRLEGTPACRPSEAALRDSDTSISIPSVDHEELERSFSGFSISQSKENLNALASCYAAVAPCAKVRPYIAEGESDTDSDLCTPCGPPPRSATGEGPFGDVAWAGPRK

COc1cc(CNC2CCCC2)cc(Cl)c1OCc1ccc(F)cc1
CC50 [1]: 19.8 µM (active) | EC50 [2]: 6.68 µM (active) | IC50 [3]: 3.33 µM (active)

COc1ccc(Cc2c(-c3ccc(OC)c(OC)c3)nc3c(C)cc(Br)cn23)c(C)c1
AC50 [4]: 6.62 µM (active) | AC50 [5]: 14.8 µM (active) | AC50 [6]: 15.5 µM (active)

Cc1ccc(-n2ncc3c(SCc4ccccn4)ncnc32)c(C)c1
IC50 [7]: 1.6 µM (active) | CC50 [8]: > 25 µM (active)

Cc1nn(-c2ccccc2)c(O)c1/C=N/N1C(=O)c2cccc3cccc(c23)C1=O
IC50 [9]: 10.3 µM (active) | EC50 [10]: > 31.5 µM (inactive) | IC50 [11]: > 32 µM | CC50 [8]: > 25 µM (active)

O=C(NCc1ccco1)c1ccc(-c2ccc3nccn3c2)cc1
AC50 [4]: 1.64 µM (active)

Cc1cccc(-c2nc(CN3CCCC(C(=O)NC4CCCCCC4)C3)c(C)o2)c1 (stereo not drawn)
EC50 [12]: 5.56 µM (active) | IC50 [13]: 7.19 µM (active)

O=C(Nc1ccc(Cl)cc1)Nc1nnc(-c2ccncc2)s1
AC50 [14]: 1.17 µM (active) | AC50 [15]: 3.54 µM (active) | IC50 [16]: 30.6 µM (inactive) | AC50 [17]: 15.5 µM (active) | AC50 [18]: 5.88 µM (active) | AC50 [19]: 3.51 µM (active) | AC50 [20]: 1.74 µM (active) | AC50 [21]: 2.98 µM (active)
